Source: US20090326008A1, “NF-kappa B Inhibitor” (priority 2006, published 2009)

System: COX-2 gene expression
Assay: Effects of test compounds on COX-2 gene expression in gastric cancer cell line MKN-45 (real-time PCR)
Format: cell-based, human
Conditions: MKN-45 cells, test compound 1 μM, 16 hours, vs DMSO control = 100%, mean of triplicate
Experimental: The human gastric cancer cell line MKN-45 obtained from JCRB (Japanese Collection of Research Bioresources) was cultured in Iscove's Modified Dulbecco's Medium (product of GIBCO) containing 10% fetal calf serum for 24 hours using a 6-well plate and a 5% CO2 incubator (37° C., 5% CO2). Test compound solutions prepared by diluting each test compound with DMSO (solvent) to a final concentration of 1 μM, and the same amount of DMSO as a control solution (containing no test compound) were added to the wells of the 6-well plate, and the cells were cultured in a CO2 incubator (37° C., 5% CO2) for 16 hours.
The cells were recovered, and Total RNA was prepared from the cells using Trizole reagent (product of Invitrogen) according to the standard method. Real-time PCR was performed using TaqManO Gene Expression Assays for human COX-2 (product of Applied Biosystems), and the amount of COX-2 mRNA in each test-compound-treated cell were determined. […]
PCR was performed according to the manufacturer's instructions for TaqMan® Gene Expression Assays (product of Applied Biosystems). […] The amount of each mRNA was determined from the calibration curve using the ABI PRISM 7000 Sequence Detection System. […]

COc1ccc(CC2SC(=S)NC2=O)c2c1N(CCC(C)C)C(=O)CC2 (stereo not shown) [Test Compound 965]
COX-2 gene expression inhibition (%): >20%
